# Test system: transcript levels in tissues (GH/IGF and glucagon/insulin axes, SSTR signalling)
# Type: in vivo, cynomolgus monkeys
# [1] = RNA expression fold change, pituitary
substance,measurement,setting,value
cyclo[4-(NH2—C2H4—NH—CO—O)Pro-Phg-DTrp-Lys-Tyr(4-Bzl)-Phe] [SOM230],"Core-binding factor, runt domain, α subunit 2; translocated to, 1; cyclin D-related ↑",[1],D-related ↑ x3
same,Cyclin D3 ↑,[1],Cyclin D3 ↑ x2.5
same,Cyclin F ↓,[1],Cyclin F ↓ x2
same,Dual specificity phosphatase 8 ↓,[1],phosphatase 8 ↓ x3
same,EGFRBP 2 ↓,[1],EGFRBP 2 ↓ x1.5
same,FGFR 2 ↓,[1],FGFR 2 ↓ x2
same,Fms-related tyrosine kinase 1 (VEGF/vascular permeability factor receptor) ↓,[1],receptor) ↓ x1.5
same,Forkhead box H1 ↑,[1],Forkhead box H1↑ x2
same,Forkhead box O3A ↓,[1],↓ x1.5
same,"G protein-coupled receptor, family C, group 5, member B ↑",[1],"5, member B ↑ x2"
same,G-protein coupled receptor 9 ↑,[1],receptor 9 ↑ x2.5
same,G-protein coupled receptor 49 ↓,[1],receptor 49 ↓ x2
same,"GABA-B R 1, isoform a precursor ↑",[1],↑ x1.5
same,GFR bound protein 10 ↑,[1],↑ x1.5
same,"GLUR 2, precursor ↑",[1],x1.5
same,GTP-binding protein 11 ↑,[1],↑ x2.5
same,"GTP-binding protein (G protein), q polypeptide ↓",[1],↓ x2.5
same,GTP-binding protein like-1 ↓,[1],like-1 ↓ x3
same,Gastrin receptor ↓,[1],Gastrin receptor ↓ x2
same,Glucagon receptor ↑,[1],Glucagon receptor ↑ x7
same,IFN stimulated gene ↑,[1],↑ x3.5
same,"IFNR2 (α, β and ω) ↓",[1],↓ x2.5
same,IFNγ-inducible protein 30 (IP30) ↑,[1],30 (IP30) ↑ x1.5
same,IGF-2 ↓,[1],IGF-2 ↓ x1.5
same,"IGFBP, acid labile subunit ↑",[1],subunit ↑ x3.5
same,"IP3 receptor, type 1 ↑",[1],↑ x1.5
same,"IP-4-phosphatase, type 1, isoform b ↓",[1],"1, isoform b ↓ x2"
same,JAK 1 ↑,[1],JAK 1 ↑ x2
same,"K+ channel, subfamily K, member 3 (TASK) ↓",[1],↓ x4
same,"K+ voltage-gated channel, Shab-related subfamily, member 1 ↓",[1],"subfamily, member 1 ↓ x2"
same,MAPKKK5 ↑,[1],MAPKKK5 ↑ x2
same,Neuroblastoma-amplified protein ↑,[1],↑ x1.5
same,PDGFβ ↓,[1],PDGFβ ↓ x2
same,"PI transfer protein, β ↓",[1],↓ x2.5
same,"PI-3-kinase, catalytic, α polypeptide ↓",[1],polypeptide ↓ x3
same,"PI-3-kinase, catalytic, δ polypeptide ↓",[1],↓ x2
same,PKC inhibitor ↑,[1],PKC inhibitor ↑ x2
same,PLCγ 1 ↓,[1],PLCγ 1 ↓ x1.5
same,"PP 1, regulatory (inhibitor) subunit 5 ↑",[1],↑ x3.5
same,"PTP, receptor type, T ↑",[1],↑ x2
same,Phosphatase and tensin homolog (mutated in multiple advanced cancers 1) ↓,[1],1) ↓ x3.5
same,Programmed cell death 6 ↑,[1],↑ x1.5
same,Putative Ca++ transporting ATPase ↑,[1],transporting ATPase ↑ x2
same,"RAB 5C, member RAS oncogene family ↑",[1],oncogene family ↑ x3
same,"Rab3 GTPase-activating protein, non catalytic subunit ↓",[1],subunit ↓ x2
same,"Rab geranylgeranyltransferase, α subunit ↓",[1],α subunit ↓ x1.5
same,"Rab geranyltransferase, β subunit ↑",[1],β subunit ↑ x2
same,Receptor (calcitonin) activity modifying protein 2 precursor ↑,[1],2 precursor ↑ x3.5
same,Receptor tyrosine kinase-like orphan receptor 2 ↑,[1],receptor 2 ↑ x2
same,Regulator of G-protein signalling 9 ↑,[1],↑ x2
same,S-phase response (cyclin-related) ↑,[1],(cyclin-related) ↑ x2
same,SHB adaptor protein (a Src homology 2 protein) ↓,[1],↓ x2.5
same,SSTR3 ↑,[1],SSTR3 ↑ x3
same,"STAT 1, 91kδ ↓",[1],"STAT 1, 91kδ ↓ x2"
same,Soluble adenylyl cyclase ↓,[1],↓ x2
same,"TNFR subfamily, member 14; herpesvirus entry mediator ↓",[1],entry mediator ↓ x2.5
same,TNFR-associated factor 2 ↓,[1],2 ↓ x4
same,Thrombospondin-p50 ↓,[1],↓ x2
same,Thyroid transcription factor 1 ↑,[1],factor 1 ↑ x2.5
same,VEGF B ↑,[1],VEGF B ↑ x1.5
same,"Extra spindle poles, S. cerevisiae, homolog of ↓","cynomolgus monkey, in vivo",↓ x2.5
same,Acetylserotonin O-methyl transferase-like expression ↓ (fold change),kidney,transferase-like ↓ x3
same,Adrenomedullin expression ↑ (fold change),kidney,x1.5
same,Angiotensin receptor 1B expression ↓ (fold change),kidney,1B ↓ x1.5
same,"Arginine vasopressin (neurophysin II, antidiuretic hormone, diabete insipidus, neurohypophyseal) expression ↑ (fold change)",kidney,↑ x2
same,"CDC37 (cell division cycle 37, S. cerevisiae, homolog) expression ↑ (fold change)",kidney,homolog) ↑ x1.5
same,"CSF-1 receptor, formerly Mc Donough feline sarcoma viral (v-fms) oncogene homolog expression ↑ (fold change)",kidney,homolog ↑ x2.5
same,"Ca++ channel, voltage-dependent, α 1H subunit expression ↑ (fold change)",kidney,α 1H subunit ↑ x2
same,"Calcium/calmodulin-dependent protein kinase kinase 2, β expression ↑ (fold change)",kidney,↑ x1.5
same,"Calmodulin 3 (phosphorylase kinase, δ) expression ↓ (fold change)",kidney,"kinase, δ) ↓ x1.5"
same,"Cdk 5, regulatory subunit 2 (p39) expression ↑ (fold change)",kidney,↑ x1.5
same,"Cdki 1A (p21, Cip 1) expression ↑ (fold change)",kidney,Cip 1) ↑ x5
same,Corticotropin releasing hormone receptor type 2 beta isoform expression ↑ (fold change),kidney,isoform ↑ x1.5
same,Death effector domain-containing expression ↓ (fold change),kidney,↓ x3.5
same,Dopamine receptor D2 expression ↑ (fold change),kidney,receptor D2 ↑ x4.5
same,Fas/Apo-1/CD95 expression ↑ (fold change),kidney,↑ x1.5
same,"GABA (A) receptor, γ2 precursor expression ↑ (fold change)",kidney,precursor ↑ x2
same,GFR-bound protein 7 expression ↑ (fold change),kidney,protein 7 ↑ x2
same,GFR-bound protein 14 expression ↑ (fold change),kidney,protein 14 ↑ x2
same,Gene expression (AvgDiff): IGF-1,kidney,25
same,Gene expression (AvgDiff): IGF-2,kidney,49
same,Gene expression (AvgDiff): IGFBP2,kidney,563
same,Gene expression (AvgDiff): IR,kidney,196
same,Gene expression (AvgDiff): SSTR2,kidney,126
same,Gene expression (AvgDiff): SSTR3,kidney,82
same,Glucocorticoid receptor DNA binding factor 1 expression ↓ (fold change),kidney,↓ x4.5
same,"Glutamate receptor, metabotropic 2 precursor expression ↓ (fold change)",kidney,precursor ↓ x3
same,Growth arrest-specific 6 expression ↑ (fold change),kidney,specific 6 ↑ x1.5
same,IGF-1 expression ↓ (fold change),kidney,IGF-1 ↓ x2.5
same,IGF-2 expression ↓ (fold change),kidney,IGF-2 ↓ x2
same,IGFBP2 expression ↑ (fold change),kidney,IGFBP2 ↑ x1.5
same,IL-7 R precursor expression ↑ (fold change),kidney,↑ x2
same,IRF5 expression ↑ (fold change),kidney,IRF5 ↑ x2
same,Insulin receptor expression ↓ (fold change),kidney,↓ x3
same,"K+ voltage-gated channel, Shaw-related subfamily, member 3 expression ↑ (fold change)",kidney,member 3 ↑ x2.5
same,LIF (cholinergic differentiation factor) expression ↑ (fold change),kidney,factor) ↑ x2
same,"Na+ channel, nonvoltage-gated 1, β (Liddle syndrome) expression ↓ (fold change)",kidney,↓ x2
same,Natriuretic peptide receptor A/guanylate cyclase A (atrionatriuretic peptide receptor A) expression ↑ (fold change),kidney,↑ x2
same,"Opioid receptor, δ1 expression ↑ (fold change)",kidney,δ1 ↑ x2.5
same,"PDGFR, α polypeptide expression ↑ (fold change)",kidney,polypeptide ↑ x1.5
same,PG-endoperoxide synthase 1 (prostaglandin G/H synthase and cyclooxygenase) expression ↓ (fold change),kidney,x3.5
same,"PI-3-kinase, catalytic, α polypeptide expression ↓ (fold change)",kidney,polypeptide ↓ x3
same,"PP 3 (formerly 2B), catalytic subunit, β isoform (calcineurin A β) expression ↓ (fold change)",kidney,↓ x2
same,Putative chemokine receptor; GTP-binding protein expression ↑ (fold change),kidney,↑ x2
same,SSTR2 expression ↑ (fold change),kidney,SSTR 2↑ x2
same,SSTR 3 expression ↑ (fold change),kidney,SSTR 3↑ x3
same,"Solute carrier family 6 (neurotransmitter transporter, creatin), member 8 expression ↓ (fold change)",kidney,member 8 ↓ x3
same,Solute carrier family 9 (Na+/H+ exchanger) isoform 3 regulatory factor 1 expression ↑ (fold change),kidney,↑ x2
same,"TGF, β1 expression ↑ (fold change)",kidney,"TGF, β1 ↑ x1.5"
same,THR binding protein expression ↑ (fold change),kidney,protein ↑x1.5
same,"THR, α (avian erythroblastic leukemia viral (v-erb-a) oncogene homolog) expression ↑ (fold change)",kidney,homolog) ↑x1.5
same,"THR-associated protein, 240kδ subunit expression ↓ (fold change)",kidney,subunit ↓ x1.5
same,"TNF, α-induced protein 3 expression ↓ (fold change)",kidney,↓ x1.5
same,"TNFR superfamily, member 12 expression ↑ (fold change)",kidney,member 12 ↑ x2
same,VWF precursor expression ↑ (fold change),kidney,x2
same,Vasopressin-activated calcium-mobilizing receptor-1 expression ↓ (fold change),kidney,1 ↓ x2
same,"δ sleep inducing peptide, immunoreactor expression ↑ (fold change)",kidney,x2.5
same,1-PI-4-phosphate 5-kinase isoform C expression ↓ (fold change),liver,↓ x2
same,5-hydroxytrypt amine (serotonine) receptor 6 expression ↑ (fold change),liver,receptor 6 ↑ x2.5
